Data set [1] can be described thus: Mouse plasma stability study (HPLC). In kind it is in vitro ADME. The settings on record: stable = intensity of HPLC signal unchanged over 60 min of incubation. The procedure: Mouse Plasma Stability Studies (Table 5): HPLC conditions: The sample is injected and separated using an Inertsil ODS3 6u 3×150 mm column with a mobile phase of MeCN and water (50% for migrastatin) at a flow of 0.4 mL/min, monitored at 220 nm at 0.02 AUFS (the retention time for migrastatin is ca. 4 min, the identity of this peak was confirmed by mass spectral analysis). Incubation and sample preparation conditions: A solution (ca. 30 mM) of chemical compound (Table 5) in DMSO is prepared. 2 μL of the solution is added to a mixture containing 200 μL of mouse plasma and 800 μL of PBS. The resulting solution is put into a water bath at 37° C., and 100 μL of sample is withdrawn at 10, 20, 30, 45, and 60 min. The precipitate is removed by centrifugation and 20 μL of the supernatant is injected onto the HPLC.

For data set [2], the system named is HUVEC. Briefly: Tube formation assay (preliminary, Table 1). The class given is cell-based, human. Particulars: minimal concentration causing definite disturbance of tube network, 16-18 h, tested 200, 100, 50, 25, 10 μM. The procedure: 1. Tube Formation Assay (Table 1):
A protocol was designed based on the instructions from the provider (BD Bioscience, San Jose, Calif.). Briefly, wells of a 48 well culture dish were covert with 150 μL matrigel and the matrigel was gelatinized for 30 min at 37° C. A 80-90% confluent HUVEC (BD Bioscience, San Jose, Calif.) culture was trypsin treated, the detached cells were collected by centrifugation and resuspended in EGM-2 media (BD Bioscience, San Jose, Calif.). Cell concentration was adjusted to 100.000 cells/mL. 400 μL of the cell suspension were filled in the matrigel coated wells, and a solution of the inhibitor was added to the intended final concentration. The plates were incubated at 37° C. with 5% CO2 for 16-18 h. Media was removed, and the matrigel surface was washed twice with 500 μL PBS before cells were labeled with 250 μL 8 μM Calcein AM (Pierce, Rockford, Ill.) in PBS for 30 min at 37° C. After two additional washing steps (500 μL PBS) cells were visualized under an inverted microscope. Fluorescence was excited at 488 nm and recorded at 538 nm. The minimum effect concentration was defined as the minimal inhibitor concentration that caused a definite disturbance of the complexity of the formed tube network.

The test system of data set [3] is 4T1 mouse breast tumor cells. The data set is described as follows: Boyden chamber cell migration assay with 4T1 tumor cells. In kind it is cell-based. Particulars: Mus musculus, read-out: IC50 (4T1 tumor cells). As for the experimental part: The biological evaluation of the compounds (in terms of their ability to inhibit cell migration) was accomplished in a Boyden chamber cell migration assay. In this assay, mouse breast tumor cells (4T1 cells) or endothelial cells (HUVECs) are seeded on the upper chamber of a transwell insert. Growth factor-containing serum is added to the lower chamber.
Chamber Cell Migration Assay (Tables 4 and 6): Cell migrations were assayed with Boyden chambers [8.0 μm pore size, polyethylene terephthalate membrane, FALCON cell culture insert (Becton-Dickinson)]. 4T1 mouse breast tumor cells or HUVECs were trypsinized and counted. 300 μl of 5-10×10^4 cells in serum-free medium was added to the upper chamber and 500 μl of medium with 10% fetal bovine serum (FBS) was added to the lower chamber. […] Cells on the inside of the transwell inserts were removed with a cotton swab, and cells on the underside of the insert were fixed and stained. Photographs of three random regions were taken and the number of cells was counted to calculate the average number of cells that have transmigrated.

In data set [4] the test system is 4T1 mouse breast tumor cells. The data set is described as follows: Wound-healing assay with 4T1 cells (FIG. 6). The class given is cell-based. Particulars: with serum; 200 μM; overnight. An excerpt: In the wound healing assay, standard scratches (i.e., wounds) were made through a confluent 4T1 cell layer. In the absence of serum, cells would not migrate across the empty space created by application of the scratch. Upon addition of serum containing migration-enabling factors, migration of 4T1 cells across the scratch was induced. Exposure to these cells to inventive compounds allowed the evaluation of the cell migration inhibitory activity of these compounds.
Wound-Healing Assay (See FIG. 6). 4T1 mouse breast tumor cells in RPMI-1640 medium containing 10% fetal bovine serum (FBS) were seeded into wells of 24-multiwell plates (Becton-Dickinson). After cells grew to confluence, wounds were made with sterile pipette tips. Cells were washed with Phosphate Buffered Saline (PBS) and refreshed with growth medium containing different concentrations of chemical compounds. After overnight incubation at 37° C., cells were fixed and photographed.

Data set [5] concerns tumor cell migration. The settings on record: literature value for natural migrastatin; read-out: IC50, wound healing assay (reported activity); cited from earlier work.
Data set [6] relates to adherent cells (e.g. KYSE-520 cells). The data set is described as follows: Wound healing (scratch) assay (preliminary, Table 2). In kind it is cell-based. The settings on record: 28 to 30 h, compared to 100 μM Migrastatin, tested 200, 100, 50, 25, 10 μM. The procedure: 2. Wound Healing Assay (Table 2)
The wound healing assay was performed based on the method described by Nakae et al. (Nakae et al., J. Antibiotics (2000), 53, 1130-1136). Briefly, adherent cells were grown in a suitable media to confluence (e.g. KYSE-520 cells in RPMI-1640 with 10% FBS). Cells were starved for 24 h in serum free media. A scratch (ca. 0.5 mm) was applied and the cell layer was washed twice with PBS after removal of the media. Fresh, serum free media with the test compound at the desired concentration was added and the cells were incubated for 28 to 30 h at 37° C., 5% CO2. The scratch size was compared to that observed for cells exposed to 100 μM Migrastatin. Test compounds associated with a scratch size equal to or larger than that observed for cells exposed to 100 μM Migrastatin were deemed to have cell migration inhibitory activity at least equal to Migrastatin.

For data set [7], the system named is HUVECs (human umbilical vein endothelial cells). The data set is described as follows: Boyden chamber cell migration assay with HUVECs. The class given is cell-based. Particulars: Homo sapiens, HUVEC, read-out: IC50 (HUVEC). The procedure: Chamber Cell Migration Assay (Tables 4 and 6): Cell migrations were assayed with Boyden chambers [8.0 μm pore size, polyethylene terephthalate membrane, FALCON cell culture insert (Becton-Dickinson)]. 4T1 mouse breast tumor cells or HUVECs were trypsinized and counted. 300 μl of 5-10×10^4 cells in serum-free medium was added to the upper chamber and 500 μl of medium with 10% fetal bovine serum (FBS) was added to the lower chamber. The transwells were incubated for 6-8 h at 37° C. with different concentrations of chemical compound in both upper and lower chamber. Cells on the inside of the transwell inserts were removed with a cotton swab, and cells on the underside of the insert were fixed and stained. Photographs of three random regions were taken and the number of cells was counted to calculate the average number of cells that have transmigrated.

Data set [8] deals with cells. Briefly: Chamber cell migration assay, CyQuant readout (preliminary, Table 3). In kind it is cell-based. The settings on record: 36 h, tested 200, 100, 50, 25, 10 μM. The procedure:
3. Chamber Cell Migration Assay (Table 3)
Cells were grown in an appropriate media to 70 to 80% confluence and incubated in serum and growth factor free media for 24 h. Cells were detached by typsin treatment, collected by centrifugation and resuspended in serum free media to a final concentration of 150,000 cells/mL. 400 μL of the cell suspension were loaded into a fibronectin coated insert for 24 well multidishes. 750 μL fully supplemented media were applied to the compartment under the insert. To both chambers the inhibitor was added at the intended concentration and the plates were incubated for 36 h at 37° C., 5% CO2. […] The resulting CyQuant assay solution was transferred to the cavities of a 96 well microtiter plate and the fluorescence signal was recorded in an appropriate reader. The CyQuant dye forms a highly fluorescent complex with DNA, thus the fluorescence signal is proportional to the number of cells that migrated throught he membrane in the presence of the test compound (N^inh). […] The positive control fluorescent reading correlates with the number of cells that migrate through the membrane in the absence of inhibitor (N^+). […] The negative control fluorescent reading correlates with the number of cells that migrate through the membrane through non-directed processes (N^−). The anti-migratory effect of a test compound is determined by the ratio (N^inh−N^−)/(N^+−N^−).

The test system of data set [9] is 4T1 tumor cells. Briefly: Cell proliferation assay (MTT). Particulars: Mus musculus, 4T1, 48 h, read-out: IC50, 4T1 cell proliferation.
Method: Cell Proliferation Assay: 4×10^4 of 4T1 tumor cells in RPMI-1640 medium containing 10% FBS were seeded into wells of 96-multiwell plates (Becton-Dickinson) in the presence or absence of chemical compounds and then incubated at 37° C. for 48 h. An MTT kit (Cell Proliferation Kit I, Roche) (a colorimetric assay) was used to quantify cell proliferation and viability. The number of living cells, thus the total metabolic activity, directly correlates to the amount of purple formazan crystals formed (monitored by the absorbance).

SMILES strings stand for the structures.

Consider `CO[C@H]1/C=C/CC/C=C/C(=O)O[C@H]([C@H](C)C(=O)CCCC2CC(=O)NC(=O)C2)/C(C)=C\[C@@H](C)[C@@H]1O` [migrastatin (1), Migrastatin], for which the results for the “stability (mouse plasma), in words” value in data set [1] and in [1] (listed as migrastatin) were “stable^1” and “completely inert toward lactone opening”, respectively. The Minimum effect concentration in [2] and in data set [6] was 100 µM throughout. The IC50 in data set [3] is 29 µM; in data set [5] it was 29 µM; in data set [7], 65 µM; in [8] it was 200 µM; in data set [9], 42 µM. Also, the “inhibition of 4T1 cell migration across the scratch, in words” value in data set [4] is listed as “not as great”.

These data come from patent US20070037783A1, “Migrastatin analogs and uses thereof” (priority 2003, published 2007).
